{"source": "patent US12398106B2", "about": "“Catecholamine carbamate prodrugs for use in the treatment of parkinson's disease” (H. Lundbeck A/S, priority 2019, dated 2025)", "key": {"[1]": {"test": "Conversion of compounds in human plasma (incubation, LC-MS/MS)", "type": "in vitro ADME", "conditions": "for Observed metabolite, incubation in human plasma: 1 μM test compound, 37° C., 0 to 6 hours", "description": "Frozen human plasma was thawed and then centrifuged at 3200×g for 5 minutes to remove debris. The pH value of the supernatant was then measured and adjusted to 7.4±0.1 by adding 1% phosphoric acid or 1 N sodium hydroxide. 2 μL of dosing solution (50 μM for test compounds and 100 μM for positive control (propantheline bromide)) was mixed with 98 μL of blank plasma to achieve 1 μM test compound and 2 μM positive control of final concentration. The mixture was incubated, and samples were withdrawn from the incubations at the pre-determined time points of 0, 0.5, 1, 2, 4 and 6 hours (in duplicate) at 37° C. in water bath. At each corresponding time point 10 μL inhibitor and 20 μL ascorbic acid and 2 μL formic acid (20%) are added, and then added 400 μL of “stop solution” (200 ng/mL tolbutamide plus 200 ng/mL labetalol in 50% ACN/MeOH) to precipitate protein. The substance was mixed thoroughly and thereafter Centrifugated at 4,000 rpm for 20 minutes. Then an aliquot of supernatant (50 μL) was transferred from each well to a sample plate and mixed with 100 μL ultrapure water. The plate was shaked at 800 rpm for about 10 minutes before submitting to LC-MS/MS analysis.\nMass spectrometer (LC-MS/MS) Shimadzu LC 20-AD Shimadzu UHPLC API 4000. Analytical column ACQUITY UPLC® BEH Phenyl 1.7 μm 2.1×50 mm. Mobile phase A: 0.1% Formic Acid in Water. Mobile phase B: 0.1% Formic Acid in Acetonitrile. […] Flow rate 0.7 mL/min."}, "human 5-HT2B receptor [2]": {"biological_target": "T1, human 5-HT2B receptor (Homo sapiens, UniProt P41595)", "T1 construct": "host or cells: CHO cells", "T1 sequence (P41595 whole entry)": "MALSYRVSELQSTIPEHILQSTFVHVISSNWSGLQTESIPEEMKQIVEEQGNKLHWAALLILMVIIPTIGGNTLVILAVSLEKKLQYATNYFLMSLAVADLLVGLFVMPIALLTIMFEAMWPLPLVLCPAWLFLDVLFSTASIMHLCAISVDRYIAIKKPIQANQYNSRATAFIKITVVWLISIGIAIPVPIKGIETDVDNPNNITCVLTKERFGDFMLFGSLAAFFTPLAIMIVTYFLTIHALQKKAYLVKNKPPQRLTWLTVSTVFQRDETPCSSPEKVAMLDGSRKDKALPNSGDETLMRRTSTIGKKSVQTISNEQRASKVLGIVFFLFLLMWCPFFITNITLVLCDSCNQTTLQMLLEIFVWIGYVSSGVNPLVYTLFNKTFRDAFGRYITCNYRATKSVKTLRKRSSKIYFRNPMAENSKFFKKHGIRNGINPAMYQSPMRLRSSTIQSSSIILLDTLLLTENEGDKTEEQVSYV", "test": "5-HT2B radioligand binding assay ([125I](±)DOI, CHO cell membranes)", "conditions": "read-out: 5-HT2B % at single concentration (binding affinity, % inhibition of control specific binding per footnote)", "description": "Evaluation of the affinity of compounds for the human 5-HT2B receptor was determined in a radioligand binding assay at Eurofins/Cerep (France). Membrane homogenates prepared from CHO cells expressing the human 5HT2B receptor were incubated for 60 minutes at room temperature with 0.2 nM [125I](±)DOI (1-(4-iodo-2, 5-dimethoxyphenyl)propan-2-amine) in the absence or presence of the test compound in a buffer containing 50 mM Tris-HCl (pH 7.4), 5 mM MgCl2, 10 μM pargyline and 0.1% ascorbic acid. Nonspecific binding is determined in the presence of 1 μM (±)DOI. Following incubation, the samples were filtered rapidly under vacuum through glass fiber filters (GF/B, Packard) presoaked with 0.3% polyethyleneimine (PEI) and rinsed several times with ice-cold 50 mM Tris-HCl using a 96-sample cell harvester (Unifilter, Packard). The filters were dried and counted for radioactivity in a scintillation counter (Topcount, Packard) using a scintillation cocktail (Microscint 0, Packard). The results are expressed as a percent inhibition of the control radioligand specific binding. The standard reference compound was (±)DOI, which was tested in each experiment at several concentrations to obtain a competition curve from which its IC50 is calculated."}, "[3]": {"test": "PK experiments in rats: plasma compound (I) after oral dosing of prodrug", "conditions": "for Observed metabolite, in vivo PK study after oral dosing (rats): plasma; for Plasma concentrations / exposure of compound (I) after oral dosing of prodrug (in words): Wistar rats, doses equal to 287 μg/kg of compound (I)", "protocol": "For all the experiments, blood samples of approximately 0.68 mL were drawn from the tail or sublingual vein and put into K3EDTA tubes that had been pre-cooled and prepared with stabilizing solution consisting of 80 μL ascorbic acid and 40 μL 100 mM D-saccharic acid 1,4 lactone in water. The tubes were inverted gently 6-8 times to ensure thorough mixing and then placed in wet ice. The collecting tube was placed in wet ice for up to 30 minutes until centrifugation. Once removed from the wet ice the centrifugation was initiated immediately. Immediately after end of centrifugation the samples were returned to wet ice. Three sub-samples of 130 μL plasma were transferred to each of three appropriately labelled cryo tubes containing 6.5 μL pre-cooled formic acid (20%) (the tubes were pre-spiked and stored refrigerated prior to use). The tube lid was immediately replaced, and the plasma solution was thoroughly mixed by inverting gently 6-8 times. The samples were stored frozen at nominally −70° C. within 60 minutes after sampling. Centrifugation conditions at 3000 G for 10 minutes at 4° C. Plasma was placed on water-ice following collection. Final storage at approximately −70° C.\nPlasma samples were analyzed by solid phase extraction or direct protein precipitation followed by UPLC-MS/MS. MS detection using electrospray in the positive ion mode with monitoring of specific mass-to-charge transitions for compound (I) using internal standards for correcting the response. The concentration-time data was analyzed, using standard software using appropriate noncompartmental techniques to obtain estimates of the derived PK parameters.\nMass spectrometer (LC-MS/MS) Waters Acquity-Sciex API 5000. Analytical column Waters BEH UPLC Phenyl 100×2.1 mm column, 1.7 μm particle size. Mobile phase A: 20 mM ammonium formate (aq)+0.5% formic acid. Mobile phase B: Acetonitrile. Gradient run from 95/5% to 2/98 in 6.1 minutes. Flow rate 0.5 mL/min. MRM monitoring (multiple reaction monitoring) of test item and the added analytical standards\nHan Wistar rats were supplied by Charles River Laboratories, Sulzfeld, Germany. An artificial, automatically controlled, light and dark cycle of 12 hours was maintained. The rats received a standard laboratory diet from Brogaarden (Altromin 1324 pellets). The rats had unrestricted access to the diet.\nMass spectrometer (LC-MS/MS) Waters Acquity-Sciex API 5000. Analytical column Waters BEH UPLC Phenyl 100×2.1 mm column, 1.7 μm particle size. Mobile phase A: 20 mM ammonium formate (aq)+0.5% formic acid. Mobile phase B: Acetonitrile. Gradient run from 95/5% to 2/98 in 6.1 minutes. Flow rate 0.5 mL/min. MRM monitoring of test item and the added analytical standards.\nHan Wistar rats were supplied by Charles River Laboratories, UK. An artificial, automatically controlled, light and dark cycle of 12 hours was maintained. The rats received a standard laboratory diet (Teklad 2014C Diet.). The rats had unrestricted access to the diet.\nMass spectrometer (LC-MS/MS) Waters Acquity—Waters Xevo TQ-S. Analytical column Acquity BEH C18 100×2.1 mm, 1.7 μm. Mobile phase A: 20 mM NH4—Formate+0.2% formic acid. Mobile phase B: Acetonitrile+0.2% formic acid. Gradient run from 95/5% to 5/95% in 11.0 minutes. Flow rate 0.3 mL/min. MRM monitoring of test item and the added analytical standards.\nHan Wistar rats were supplied by Envigo, UK."}, "human 5-HT2B receptor [4]": {"biological_target": "T1, human 5-HT2B receptor", "test": "5-HT2B agonist activity assay (IP1 production, HTRF, transfected CHO cells)", "type": "cell-based", "description": "Evaluation of the agonist activity of compounds (I), (Ia) and (Ib) at the human 5-HT2B receptor was performed by Eurofins/Cerep (France) measuring the compound effects on inositol monophosphate (IP1) production using the HTRF detection method. Briefly, the human 5-HT2B receptor was expressed in transfected CHO cells. The cells were suspended in a buffer containing 10 mM Hepes/NaOH (pH 7.4), 4.2 mM KCl, 146 mM NaCl, 1 mM CaCl2, 0.5 mM MgCl2, 5.5 mM glucose and 50 mM LiCl, then distributed in microplates at a density of 4100 cells/well and incubated for 30 min at 37° C. in the presence of buffer (basal control), test compound or reference agonist. For stimulated control measurement, separate assay wells contained 1 μM 5-HT. Following incubation, the cells were lysed and the fluorescence acceptor (fluorophen D2-labeled IP1) and fluorescence donor (anti-IP1 antibody labeled with europium cryptate) were added. After 60 minutes at room temperature, the fluorescence transfer was measured at lambda(Ex) 337 nm and lambda (Em) 620 and 665 nm using a microplate reader (Rubystar, BMG). The IP1 concentration was determined by dividing the signal measured at 665 nm by that measured at 620 nm (ratio). The results were expressed as a percent of the control response to 1 μM 5-HT. […]"}, "[5]": {"conditions": "man, after oral dosing; cited from earlier work"}}, "data": [{"smiles": "CCCN1CCC[C@@H]2Cc3c(ccc(OC(=O)N(C)C)c3OC(=O)N(C)C)C[C@H]21", "note": "[Compound (3), (4aR,10aR)-1-propyl-1,2,3,4,4a,5,10,10a-octahydrobenzo[g]quinoline-6,7-diyl bis(dimethylcarbamate)]", "values": [{"measurement": "Observed metabolite, incubation in human plasma", "setting": "[1]", "value": "Compound (I)"}, {"measurement": "inhibition at 10 µM", "setting": "human 5-HT2B receptor [2]", "value": 4, "unit": "%"}, {"measurement": "Observed metabolite, in vivo PK study after oral dosing (rats)", "setting": "[3]", "value": "Compound (I)"}]}, {"smiles": "CCCN1CCC[C@@H]2CC3=C(CCCC3=O)C[C@H]21", "note": "[Compound (Ia), reference compound]", "values": [{"measurement": "5-HT2B agonist effect at single concentration", "setting": "human 5-HT2B receptor [4]; @30 μM, percent of the control response to 1 μM 5-HT", "value": 58, "unit": "%"}, {"measurement": "Plasma concentrations / exposure of compound (I) after oral dosing of prodrug (in words)", "setting": "[3]", "value": "early and high peak concentrations of compound (I)"}]}, {"smiles": "CCCN1CCC[C@@H]2Cc3c(ccc(O)c3O)C[C@H]21", "note": "[Compound (I), (4aR,10aR)-1-Propyl-1,2,3,4,4a,5,10,10a-octahydro-benzo[g]quinoline-6,7-diol, reference compound]", "values": [{"measurement": "Half-life in the plasma assay (in words)", "setting": "[1]; human plasma incubation", "value": "short half-life"}]}, {"smiles": "CCCN1CCC[C@@H]2Cc3c(ccc(OC(=O)NC)c3OC(=O)NC)C[C@H]21", "note": "[Compound (1), (4aR,10aR)-1-propyl-1,2,3,4,4a,5,10,10a-octahydrobenzo[g]quinoline-6,7-diyl bis(methylcarbamate)]", "values": [{"measurement": "inhibition at 10 µM", "setting": "human 5-HT2B receptor [2]", "value": 3, "unit": "%"}, {"measurement": "Observed metabolite, in vivo PK study after oral dosing (rats)", "setting": "[3]", "value": "Compound (I)"}]}, {"smiles": "CCCc1cc2c(s1)CN[C@@H]1CCc3cc(OC(C)=O)c(OC(C)=O)cc3[C@@H]21", "note": "[Adrogolide]", "values": [{"measurement": "Oral bioavailability", "setting": "[5]", "value": "~4", "unit": "%"}]}, {"smiles": "CCCN1CCC[C@@H]2Cc3c(ccc4c3OCO4)C[C@H]21", "note": "[Compound (Ib), (6aR,10aR)-7-propyl-6,6a,7,8,9,10,10a,11-octahydro-[1,3]dioxolo[4′,5′:5,6]benzo[1,2-g]quinoline, reference compound]", "values": [{"measurement": "5-HT2B receptor agonism (in words)", "setting": "human 5-HT2B receptor [4]; c.f. example 2 and Table 3", "value": "agonist of the 5-HT2B receptor"}, {"measurement": "Plasma concentrations / exposure of compound (I) after oral dosing of prodrug (in words)", "setting": "[3]", "value": "early and high peak concentrations of compound (I)"}]}, {"smiles": "CCCN1CCC[C@@H]2Cc3c(ccc(OC(=O)C(C)(C)C)c3OC(=O)C(C)(C)C)C[C@H]21", "note": "[(Ic), reference compound]", "values": [{"measurement": "Plasma concentrations / exposure of compound (I) after oral dosing of prodrug (in words)", "setting": "[3]", "value": "extremely low"}]}, {"smiles": "CCCN1CCC[C@@H]2Cc3c(ccc(OC(=O)NCC)c3OC(=O)NCC)C[C@H]21", "note": "[Compound (2), (4aR,10aR)-1-propyl-1,2,3,4,4a,5,10,10a-octahydrobenzo[g]quinoline-6,7-diyl bis(ethylcarbamate)]", "values": [{"measurement": "Observed metabolite, incubation in human plasma", "setting": "[1]", "value": "Compound (I)"}, {"measurement": "inhibition at 10 µM", "setting": "human 5-HT2B receptor [2]", "value": 3, "unit": "%"}, {"measurement": "Observed metabolite, in vivo PK study after oral dosing (rats)", "setting": "[3]", "value": "Compound (I)"}]}]}
